Source: patent publication US20250302974A1, “LECTIN-DRUG CONJUGATES” (UNICHEM LABORATORIES LIMITED, priority 2021, published 2025)
pIC50: −log10 of the molar value. Where two headings read alike, the source gives them in different places.

What was measured:
Th1 cytokines; IgM = test: Effect on immune system (Th1 cytokines, IgM), T24 xenograft model; assay type: in vivo, mice
Procedure: (§9) Effect of compound of Formula 16 was evaluated using T24 human bladder carcinoma xenograft model.

[1] = test system: T24 human bladder carcinoma xenograft; test: In vivo anti-tumor potential, T24 human bladder carcinoma xenograft model in female nude mice; settings: G2, 5 mg/kg, Weekly once
Procedure: (§1) In vivo anti-tumor potential of compound of Formula 16 was evaluated using T24 human bladder carcinoma xenograft model in mice by assessing biological endpoints such as tumor growth and tumor growth inhibition.
(§2) Thirty-five healthy female nude mice bearing T24 tumor with volume of ˜100 mm3 were selected, randomized and allocated into five groups (G1-G5, n=7 animals per group). Body weight of each mouse was recorded on the day of randomization and daily till the end of the study. The tumor size was measured weekly twice from the day of test item/reference drug/vehicle dosing till the end of the experiment. Tumor size was measured by digital caliper (MITUTOYO, Japan) by measuring length and width. Body weight and tumor volume data was statistically analysed using two-way ANOVA (Bonferroni Test). Statistical analysis was conducted using PRISM software, version 5.01.p values of <0.05 were considered as statistically significant. Percentage survival proportions were analyzed by “Kaplan Meier” method.

[2] = test system: T24 human bladder carcinoma xenograft; test: In vivo anti-tumor potential, xenograft model (tumor volume, TGI, %T/C, body weight, survival); settings: 5 mg/kg, weekly once
Procedure: as §1, §2

[3] = test system: T24 human bladder carcinoma xenograft; test: Effect on immune system (Th1 cytokines, IgM) in xenograft model; assay type: in vivo, mice
Procedure: as §9

[4] = test system: T24 human bladder carcinoma xenograft; test: Histopathological investigation of tumour tissue; assay type: in vivo, mice; settings: 5 mg/kg, weekly once
Procedure: as §9

[5] = test system: T24 human bladder carcinoma xenograft; test: Histopathological investigation of tumour tissue, T24 xenograft model; assay type: in vivo, human T24 tumor in nude mice; settings: G2, 5 mg/kg, Weekly once; 'Moderately Differentiated' wrapped over two lines
Procedure: as §9

U251 MG Brain = test: Cytotoxic effect by MTT assay, 48 h; settings: Homo sapiens, U-251, 48 h
Procedure: (§3) Cells were treated with Test Items at various concentrations (0.0001 μM-10 μM) for 48 h. The cells corresponding to Positive Control group were treated with Doxorubicin at a concentration ranging from 0.1 μM-100 μM. The Untreated cells were used as Control. After 48 h of incubation, the effect of Test Items on cytotoxicity of cells was determined by MTT assay, the plates were taken out and 20 μl of 5 mg/m1 of MTT 3-(4,5-dimethythiazol-2-yl)-2,5-diphenyl tetrazolium bromide solution was added to all the wells. Cells were incubated for 3 h at 37° C. The supernatant was aspirated. 150 μl of DMSO was added to each well to dissolve formazan crystals. The absorbance of each well was then read at 540 nm using Synergy HT micro plate reader.
(§4) The % Cytotoxicity was calculated using the formula:
(§5) Where, X=Absorbance of cells treated with Test Item; R=Absorbance of Control cells (Untreated cells maintained in growth medium only).
(§6) Selectivity Index was calculated using the formula:
(§7) SI=IC50 in Normal cell/IC50 in cancer cell.
(§8) Activity scores of the Selective Index values were categorized as: • Not selective (SI value ≤1) • Moderately selective (1<SI value <5) • Selective (SI value ≥5)

PANC-1 Pancreatic = test: Cytotoxic effect by MTT assay, 48 h; settings: Homo sapiens, PANC-1, 48 h, read-out: IC50 Values
Procedure: as §3, §4, §5, §6, §7, §8

PA-1 Ovary = test: Cytotoxic effect by MTT assay, 48 h; settings: 48 h
Procedure: as §3, §4, §5, §6, §7, §8

AGS Stomach = test: Cytotoxic effect by MTT assay, 48 h; settings: 48 h
Procedure: as §3, §4, §5, §6, §7, §8

[6] = Cytotoxic effect by MTT assay, 48 h; settings: human
Procedure: as §3, §4, §5, §6, §7, §8

MDA-MB-231 Breast = test: Cytotoxic effect by MTT assay, 48 h; settings: Homo sapiens, MDA-MB-231, 48 h
Procedure: as §3, §4, §5, §6, §7, §8

MG-63 Bone = test: Cytotoxic effect by MTT assay, 48 h; settings: Homo sapiens, MG-63, 48 h
Procedure: as §3, §4, §5, §6, §7, §8

KB Cervix = test: Cytotoxic effect by MTT assay, 48 h; settings: 48 h
Procedure: as §3, §4, §5, §6, §7, §8

T24 Bladder = test: Cytotoxic effect by MTT assay, 48 h; settings: Homo sapiens, 48 h
Procedure: as §3, §4, §5, §6, §7, §8

HT29 Colon = test: Cytotoxic effect by MTT assay, 48 h; settings: Homo sapiens, HT-29, 48 h
Procedure: as §3, §4, §5, §6, §7, §8

[7] = Cytotoxic effect by MTT assay, 48 h
Procedure: as §3, §4, §5

PBMC Normal = test: Cytotoxic effect by MTT assay, 48 h; settings: PBMC, 48 h, read-out: IC50 Values
Procedure: as §3, §4, §5

[8] = Cytotoxic effect by MTT assay, 48 h; settings: human; remark: listed apart in the source
Procedure: as §3, §4, §5, §6, §7, §8

A549 Lungs = test: Cytotoxic effect by MTT assay, 48 h; settings: Homo sapiens, A549, 48 h, read-out: IC50 Values
Procedure: as §3, §4, §5, §6, §7, §8

[9] = read-out: Percent cytotoxicity wrt control

Q: What does the source list for `N.N.[Cl][Pt][Cl]` [Cisplatin]?
A: IFN gamma (Th1 cytokine) (Th1 cytokines; IgM; G2, 5 mg/kg, i.p. (q7dX2)): 80.8 pg/mL; IL-2 (Th1 cytokine) (Th1 cytokines; IgM; G2, 5 mg/kg, i.p. (q7dX2)): 259.3 pg/mL; IL-4 (Th2 cytokine) (Th1 cytokines; IgM; G2, 5 mg/kg, i.p. (q7dX2)): 60 pg/mL; IL-10 (Th2 cytokine) (Th1 cytokines; IgM; G2, 5 mg/kg, i.p. (q7dX2)): BLQ; IgG (Th1 cytokines; IgM; G2, 5 mg/kg, i.p. (q7dX2)): 54 ng/mL; IgM (Th1 cytokines; IgM; G2, 5 mg/kg, i.p. (q7dX2)): 18 ng/mL; IgM (Th1 cytokines; IgM; T24 xenograft model): reduction in IgM; Percent T/C Day 22 (Test/Control) [1]: 59.18%; Percent TGI Day 22 (Tumor Growth Inhibition) [1]: 40.82%; Percent survival [2]: 100%; Tumor growth delay [2]: 10.5 days; Percent T/C Day 22 ([2]; Day 22): 59.18%; Percent TGI Day 22 ([2]; Day 22): 40.82%; Tumor volume Day 22 ([2]; Day 22): 622.6 cu · mm; Percent body weight change Day 22 ([2]; Day 22, nude mice bearing T24 tumor): 6.3%; Immunoglobulins IgG ([3]; 5 mg/kg, i.p. (q7dX2)): 54 ng/mL; Immunoglobulins IgM ([3]; 5 mg/kg, i.p. (q7dX2)): 18 ng/mL; Th1 cytokines IFN gamma ([3]; 5 mg/kg, i.p. (q7dX2)): 80.8 pg/mL; Th1 cytokines IL-2 ([3]; 5 mg/kg, i.p. (q7dX2)): 259.3 pg/mL; Th2 cytokines IL-4 ([3]; 5 mg/kg, i.p. (q7dX2)): 60 pg/mL; Th2 cytokines IL-10 ([3]; 5 mg/kg, i.p. (q7dX2)): BLQ; IgM level ([3]; mouse, in vivo): reduction in IgM; Apoptosis [4]: Mild; Grade [4]: 2 (Grade 2 (Moderately Differentiated) - <25-50% cells anaplastic); Grade (differentiation in words) [4]: Moderately; Grade (differentiation) [5]: Moderately

Q: With `COc1cccc2c1C(=O)c1c(O)c3c(c(O)c1C2=O)C[C@@](O)(C(=O)CO)C[C@@H]3O[C@H]1C[C@H](N)[C@H](O)[C@H](C)O1` [Doxorubicin] as the compound, how does the pIC50 (U251 MG Brain; read-out: IC50 Values) read?
A: 5.09

Q: What about the cytotoxicity at 0.1 µM (U251 MG Brain; [9]) of the same compound?
A: -13.5%

Q: And the cytotoxicity at 1 µM (U251 MG Brain; [9])?
A: 41.7%

Q: And the cytotoxicity at 10 µM (U251 MG Brain; [9])?
A: 57.9%

Q: What about the cytotoxicity at 50 µM (U251 MG Brain; [9]) of the same compound?
A: 71%

Q: What about the cytotoxicity at 100 µM (U251 MG Brain; [9]) of the same compound?
A: 65.6%

Q: What about the pIC50 (PANC-1 Pancreatic) of the same compound?
A: 5.09

Q: What about the pIC50 (PA-1 Ovary; read-out: IC50 Values) of the same compound?
A: 6.00

Q: And the cytotoxicity at 0.1 µM (PA-1 Ovary; [9])?
A: 19.6%

Q: What about the cytotoxicity at 1 µM (PA-1 Ovary; [9]) of the same compound?
A: 62.6%

Q: And the cytotoxicity at 10 µM (PA-1 Ovary; [9])?
A: 73.2%

Q: And the cytotoxicity at 50 µM (PA-1 Ovary; [9])?
A: 79%

Q: And the cytotoxicity at 100 µM (PA-1 Ovary; [9])?
A: 71.5%

Q: And the pIC50 (AGS Stomach; read-out: IC50 Values)?
A: 5.37

Q: What about the cytotoxicity at 0.1 µM (AGS Stomach; [9]) of the same compound?
A: 15.6%

Q: And the cytotoxicity at 1 µM (AGS Stomach; [9])?
A: 72.4%

Q: And the cytotoxicity at 10 µM (AGS Stomach; [9])?
A: 74.5%

Q: And the cytotoxicity at 50 µM (AGS Stomach; [9])?
A: 74.8%

Q: And the cytotoxicity at 100 µM (AGS Stomach; [9])?
A: 79%

Q: And the cytotoxicity at 48 h, 0.1 µM [6]?
A: -3.4%

Q: What about the pIC50 (MDA-MB-231 Breast; read-out: IC50 Values) of the same compound?
A: 5.68

Q: What about the cytotoxicity at 0.1 µM (MDA-MB-231 Breast; [9]) of the same compound?
A: 3.4%

Q: What about the cytotoxicity at 1 µM (MDA-MB-231 Breast; [9]) of the same compound?
A: 68%

Q: And the cytotoxicity at 10 µM (MDA-MB-231 Breast; [9])?
A: 74.3%

Q: What about the cytotoxicity at 50 µM (MDA-MB-231 Breast; [9]) of the same compound?
A: 71.3%

Q: What about the cytotoxicity at 100 µM (MDA-MB-231 Breast; [9]) of the same compound?
A: 58%

Q: And the pIC50 (MG-63 Bone; read-out: IC50 Values)?
A: 6.40

Q: And the cytotoxicity at 0.1 µM (MG-63 Bone; [9])?
A: 35.3%

Q: And the cytotoxicity at 1 µM (MG-63 Bone; [9])?
A: 60.7%

Q: What about the cytotoxicity at 10 µM (MG-63 Bone; [9]) of the same compound?
A: 82%

Q: What about the cytotoxicity at 50 µM (MG-63 Bone; [9]) of the same compound?
A: 85.5%

Q: And the cytotoxicity at 100 µM (MG-63 Bone; [9])?
A: 75.5%

Q: What about the pIC50 (KB Cervix; read-out: IC50 Values) of the same compound?
A: 6.22

Q: And the cytotoxicity at 0.1 µM (KB Cervix; [9])?
A: 28.7%

Q: And the cytotoxicity at 1 µM (KB Cervix; [9])?
A: 53.1%

Q: And the cytotoxicity at 10 µM (KB Cervix; [9])?
A: 95.7%

Q: And the cytotoxicity at 50 µM (KB Cervix; [9])?
A: 91.7%

Q: And the cytotoxicity at 100 µM (KB Cervix; [9])?
A: 84.2%

Q: What about the pIC50 (T24 Bladder; read-out: IC50 Values) of the same compound?
A: 5.26

Q: What about the cytotoxicity at 0.1 µM (T24 Bladder; [9]) of the same compound?
A: 21%

Q: What about the cytotoxicity at 1 µM (T24 Bladder; [9]) of the same compound?
A: 34.8%

Q: What about the cytotoxicity at 10 µM (T24 Bladder; [9]) of the same compound?
A: 72.8%

Q: What about the cytotoxicity at 50 µM (T24 Bladder; [9]) of the same compound?
A: 66.6%

Q: And the cytotoxicity at 100 µM (T24 Bladder; [9])?
A: 52.7%

Q: And the pIC50 (HT29 Colon; read-out: IC50 Values)?
A: 4.45

Q: What about the cytotoxicity at 0.1 µM (HT29 Colon; [9]) of the same compound?
A: 3.2%

Q: What about the cytotoxicity at 1 µM (HT29 Colon; [9]) of the same compound?
A: 1.7%

Q: And the cytotoxicity at 10 µM (HT29 Colon; [9])?
A: 32.7%

Q: What about the cytotoxicity at 50 µM (HT29 Colon; [9]) of the same compound?
A: 61.9%

Q: What about the cytotoxicity at 100 µM (HT29 Colon; [9]) of the same compound?
A: 59.8%

Q: And the cytotoxicity at 48 h, 0.1 µM [7]?
A: 5.3%

Q: What about the cytotoxicity at 48 h, 1 µM [7] of the same compound?
A: 29.3%

Q: What about the cytotoxicity at 48 h, 10 µM [7] of the same compound?
A: 37.4%

Q: What about the cytotoxicity at 48 h, 50 µM [7] of the same compound?
A: 40.5%

Q: What about the cytotoxicity at 48 h, 100 µM [7] of the same compound?
A: 37.1%

Q: What about the pIC50 (PBMC Normal) of the same compound?
A: < 4.00

Q: And the cytotoxicity at 48 h, 0.1 µM [8]?
A: 3.3%

Q: And the pIC50 (A549 Lungs)?
A: 4.96
